Measured values taken from PubChem BioAssay (NCI).
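Five compound concentrations were applied to cells in 96-well plates for 48 hours; endpoints were derived by simple linear interpolation of the resulting dose-response curve. Here, GI50 denotes the concentration required for 50% inhibition of growth. TGI: total growth inhibition.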

Experiments:
Experiment in all cases: growth of human tumour cells (NCI), 48 h
OVCAR-5 ovarian = test system: OVCAR-5 ovarian
EKVX NSCLC = test system: EKVX NSCLC
SK-MEL-5 melanoma = test system: SK-MEL-5 melanoma
786-0 renal = test system: 786-0 renal
IGROV1 ovarian = test system: IGROV1 ovarian
NCI/ADR-RES ovarian = test system: NCI/ADR-RES ovarian
SNB-19 CNS = test system: SNB-19 CNS
RPMI-8226 leukemia = test system: RPMI-8226 leukemia
OVCAR-3 ovarian = test system: OVCAR-3 ovarian
SR leukemia = test system: SR leukemia

Row | SMILES | GI50 (OVCAR-5 ovarian) | TGI (OVCAR-5 ovarian) | GI50 (EKVX NSCLC) | TGI (EKVX NSCLC) | GI50 (SK-MEL-5 melanoma) | TGI (SK-MEL-5 melanoma) | GI50 (786-0 renal) | TGI (786-0 renal) | GI50 (IGROV1 ovarian) | TGI (IGROV1 ovarian) | GI50 (NCI/ADR-RES ovarian) | TGI (NCI/ADR-RES ovarian) | GI50 (SNB-19 CNS) | TGI (SNB-19 CNS) | GI50 (RPMI-8226 leukemia) | TGI (RPMI-8226 leukemia) | GI50 (OVCAR-3 ovarian) | TGI (OVCAR-3 ovarian) | TGI (SR leukemia) | GI50 (SR leukemia)
1 | CC([C@H]1CCC2C3CCC4C[C@@H](NC=O)CC[C@]4(C)C3CC[C@@]21C)N(C)C (stereo partly drawn) | 6.87 µM | 19.3 µM | 2.64 µM | 19.1 µM | 1370 nM | 2.74 µM | 1990 nM | 4.15 µM | 4.81 µM | 18.2 µM | 6.02 µM | 21.4 µM | 7.08 µM | 19.5 µM | 1.91 µM | 6.6 µM | 2.55 µM | 9.01 µM |  | 
2 | CC(=O)C1CC2(c3ccc(C)cc3)C(c3ccc(C)cc3)=C(c3ccc(C)cc3)C1(c1ccc(C)cc1)S2=O (stereo not drawn) | > 100 µM | > 100 µM | > 100 µM | > 100 µM | > 100000 nM | > 100 µM | > 100000 nM | > 100 µM | 70.2 µM | > 100 µM | > 100 µM | > 100 µM | > 100 µM | > 100 µM | 31.1 µM | > 100 µM | > 100 µM | > 100 µM |  | 
3 | COc1ccc2nc(-c3ccccc3)cc(Nc3ccc(C(C)=O)cc3)c2c1 | 6.3 µM | 19.1 µM | 5.98 µM | 20.5 µM | 1600 nM | 3.86 µM | 1310 nM | 3.54 µM | 15.8 µM | > 100 µM | 2.78 µM | 7.29 µM | 5.74 µM | 26.6 µM | 1.72 µM | 4.31 µM |  |  |  | 
4 | COC(=O)NC/C=C\c1nc(CC/C=C\C(=O)OC2CC3CC(=O)O[C@H](/C=C/CC(C)C)C[C@H]4CCC(C)C(C[C@H](OC)CC(C2)O3)O4)co1 (stereo partly drawn) | 0.877 µM | > 100 µM | < 0.01 µM | 4.8 µM | < 10 nM | 19.3 µM | < 10 nM | > 100 µM | 2.51 µM | > 100 µM | 59 µM | > 100 µM | 23 µM | > 100 µM |  |  |  |  |  | 
5 | COC1/C(=C\C(=O)OC(C)(C)C)c2ccccc2N1C(C)=O (stereo not drawn) |  |  |  | > 100 µM |  |  |  | > 100 µM |  | > 100 µM |  |  |  | > 100 µM |  | > 100 µM |  | > 100 µM | > 100 µM | 
6 | CC(=O)NC1=C(Nc2ccc(C)cc2)C(=O)c2ccccc2C1=O |  | 27.4 µM |  | > 75 µM |  | 20.4 µM |  | 39.3 µM |  | 50.8 µM |  |  |  | > 75 µM |  | 31.6 µM |  | 45.7 µM |  | 
7 | C=C1C(=O)O[C@@H]2C1C[C@@H](O)/C(C)=C/C/C=C(\C)CCC[C@H](C)[C@H]2OC(C)=O (stereo partly drawn) | 56.3 µM | > 100 µM | 23.8 µM | 59.1 µM | 17700 nM | 35.5 µM | 18700 nM | 34.3 µM | 8.84 µM | 32.7 µM | 32.3 µM | > 100 µM | 61 µM | > 100 µM | 24.9 µM | 48.6 µM | 21.4 µM | 42.7 µM |  | 
8 | O=C(O)c1c2c(c(C(=O)O)c3ccccc13)-c1ccccc1-2 |  | > 100 µM |  | > 100 µM |  |  |  | > 100 µM |  |  |  |  |  | > 100 µM |  | > 100 µM |  | 84 µM | > 100 µM | 
9 | COC(=O)/C=C(C)/C=C/c1cc(C(C)=O)c(C)o1 |  | > 100 µM |  | > 100 µM |  |  |  | > 100 µM |  | > 100 µM |  |  |  | > 100 µM |  | > 100 µM |  | > 100 µM | > 100 µM | 
10 | CC(=O)[CH-]C(=O)c1ccccc1.CC(=O)[CH-]C(=O)c1ccccc1.CC(=O)[CH-]C(=O)c1ccccc1.[Tl+3] | > 100 µM | > 100 µM | 31.8 µM | > 100 µM | 24400 nM | > 66.8 µM | 49200 nM | > 100 µM | 24.5 µM | > 68.6 µM |  |  | 95.2 µM | > 100 µM | 11.1 µM | > 100 µM | 24.1 µM | > 75.5 µM |  | 
11 | CCOC(=O)Cc1csc(/N=C2\NC(=O)/C(=C3\C(=O)N(C)c4ccccc43)S2)n1 | > 100 µM | > 100 µM | 44.1 µM | > 100 µM | 38000 nM | > 100 µM | 28000 nM | 72.5 µM | 20.6 µM | 69.2 µM | 49.6 µM | > 100 µM | 52.5 µM | > 100 µM | 32.4 µM | > 100 µM | 28.2 µM | 72.7 µM |  | 
12 | CCOc1cc2c(cnc3c4cc(OC)c(OC)cc4ccc23)cc1OC |  | > 100 µM |  | > 100 µM |  | > 100 µM |  | > 100 µM |  | > 100 µM |  |  |  | > 100 µM |  | > 100 µM |  | > 100 µM |  | 
13 | COc1ccc2c(c1)nc(N)c1c3cc(OC)c(OC)cc3cn21 | 0.0749 µM | 18.8 µM | 1.81 µM | 22 µM | 64.5 nM | 0.987 µM | 205 nM | 11.9 µM | 0.249 µM | 20.1 µM |  |  | 0.0967 µM | 19.1 µM | 0.0968 µM | 12.8 µM |  |  | 5.04 µM | < 10 nM
14 | CCCCCCCCCNCCCCCCCCC | 1.88 µM | 3.91 µM | 2.15 µM | 5.95 µM | 1770 nM | 3.2 µM | 1980 nM | 3.43 µM | 1.89 µM | 3.8 µM | 1.71 µM | 3.37 µM | 2.78 µM | 9.83 µM | 1.96 µM | 4.18 µM | 1.93 µM | 3.46 µM |  | 
15 | COc1ccc2c([nH]c3cc(O)c(C)cc32)c1C=O |  | > 25 µM |  |  |  | > 25 µM |  | > 25 µM |  | > 25 µM |  |  |  | > 25 µM |  | > 25 µM |  | > 25 µM | > 25 µM | 
16 | N/N=C(\CC1OC(=O)c2ccccc21)c1ccco1 (stereo not drawn) |  | > 100 µM |  | > 100 µM |  | > 100 µM |  | 0.164 µM |  | > 100 µM |  |  |  | > 100 µM |  |  |  | > 100 µM |  | 
17 | COc1ccc(C(=O)C(c2ccc(OC)cc2)C2(O)C(=O)Nc3c(C)cc(Cl)cc32)cc1 (stereo not drawn) |  | > 100 µM |  | > 100 µM |  |  |  | > 100 µM |  | > 100 µM |  |  |  | > 100 µM |  | 80.4 µM |  | > 100 µM | 48.2 µM | 
